Source: ChEMBL document CHEMBL4627299, “Computational discovery and biological evaluation of novel inhibitors targeting histone-lysine N-methyltransferase SET7” (Bioorg Med Chem, 2020)
Active and inactive are the calls of the source. The calls are words filed in the database; no cut-off is given here.

Experiments:
[1] = molecular target: T1, Histone-lysine N-methyltransferase SETD7 (Homo sapiens) (UniProt Q8WTS6); experiment: Inhibition of human SET7 overexpressed in Escherichia coli BL21 (DE3) cells at 25 uM preincubated for 15 mins followed by addition of SAM as substrate and biotinylated Histone H3 (1-50) peptide measured after 30 mins by AlphaLISA assay relative to control
T1 sequence (whole entry): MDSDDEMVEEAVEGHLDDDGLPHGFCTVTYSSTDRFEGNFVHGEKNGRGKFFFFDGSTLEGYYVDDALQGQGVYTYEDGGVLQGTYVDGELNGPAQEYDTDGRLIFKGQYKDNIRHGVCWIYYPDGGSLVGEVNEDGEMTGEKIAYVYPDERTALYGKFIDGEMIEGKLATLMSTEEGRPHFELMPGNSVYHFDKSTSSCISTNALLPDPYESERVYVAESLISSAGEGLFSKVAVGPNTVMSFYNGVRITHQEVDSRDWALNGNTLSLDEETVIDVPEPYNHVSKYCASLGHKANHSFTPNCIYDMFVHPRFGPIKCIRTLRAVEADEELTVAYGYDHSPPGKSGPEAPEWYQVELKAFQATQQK

[2] = molecular target: T1, Histone-lysine N-methyltransferase SETD7 (Homo sapiens); experiment: Inhibition of human SET7 overexpressed in Escherichia coli BL21 (DE3) cells at 50 uM preincubated for 15 mins followed by addition of SAM as substrate and biotinylated Histone H3 (1-50) peptide measured after 30 mins by AlphaLISA assay relative to control
[3] = molecular target: T1, Histone-lysine N-methyltransferase SETD7 (Homo sapiens); experiment: Inhibition of human SET7 overexpressed in Escherichia coli BL21 (DE3) cells at 12.5 uM preincubated for 15 mins followed by addition of SAM as substrate and biotinylated Histone H3 (1-50) peptide measured after 30 mins by AlphaLISA assay relative to control
[4] = molecular target: T2, Histone-lysine N-methyltransferase SETD7 (Homo sapiens, UniProt Q8WTS6); experiment: Inhibition of human SET7 overexpressed in Escherichia coli BL21 (DE3) cells preincubated for 15 mins followed by addition of SAM as substrate and biotinylated Histone H3 (1-50) peptide measured after 30 mins by AlphaLISA assay relative to control
T2 sequence (Q8WTS6 whole entry): T1 sequence (whole entry)

MDA-MB-231 = experiment: Antiproliferation activity against human MDA-MB-231 cells assessed as reduction in cell viability measured by Cell-titer-Glo assay; format: functional, cell-based
[5] = molecular target: Histone-lysine N-methyltransferase 2A (Homo sapiens, UniProt Q03164); experiment: Inhibition of MLL1 (unknown origin) preincubated for 15 mins followed by addition of substrate measured after 1 hr by AlphaLISA assay
Sequence of Histone-lysine N-methyltransferase 2A (Q03164 1-2718 limits assumed): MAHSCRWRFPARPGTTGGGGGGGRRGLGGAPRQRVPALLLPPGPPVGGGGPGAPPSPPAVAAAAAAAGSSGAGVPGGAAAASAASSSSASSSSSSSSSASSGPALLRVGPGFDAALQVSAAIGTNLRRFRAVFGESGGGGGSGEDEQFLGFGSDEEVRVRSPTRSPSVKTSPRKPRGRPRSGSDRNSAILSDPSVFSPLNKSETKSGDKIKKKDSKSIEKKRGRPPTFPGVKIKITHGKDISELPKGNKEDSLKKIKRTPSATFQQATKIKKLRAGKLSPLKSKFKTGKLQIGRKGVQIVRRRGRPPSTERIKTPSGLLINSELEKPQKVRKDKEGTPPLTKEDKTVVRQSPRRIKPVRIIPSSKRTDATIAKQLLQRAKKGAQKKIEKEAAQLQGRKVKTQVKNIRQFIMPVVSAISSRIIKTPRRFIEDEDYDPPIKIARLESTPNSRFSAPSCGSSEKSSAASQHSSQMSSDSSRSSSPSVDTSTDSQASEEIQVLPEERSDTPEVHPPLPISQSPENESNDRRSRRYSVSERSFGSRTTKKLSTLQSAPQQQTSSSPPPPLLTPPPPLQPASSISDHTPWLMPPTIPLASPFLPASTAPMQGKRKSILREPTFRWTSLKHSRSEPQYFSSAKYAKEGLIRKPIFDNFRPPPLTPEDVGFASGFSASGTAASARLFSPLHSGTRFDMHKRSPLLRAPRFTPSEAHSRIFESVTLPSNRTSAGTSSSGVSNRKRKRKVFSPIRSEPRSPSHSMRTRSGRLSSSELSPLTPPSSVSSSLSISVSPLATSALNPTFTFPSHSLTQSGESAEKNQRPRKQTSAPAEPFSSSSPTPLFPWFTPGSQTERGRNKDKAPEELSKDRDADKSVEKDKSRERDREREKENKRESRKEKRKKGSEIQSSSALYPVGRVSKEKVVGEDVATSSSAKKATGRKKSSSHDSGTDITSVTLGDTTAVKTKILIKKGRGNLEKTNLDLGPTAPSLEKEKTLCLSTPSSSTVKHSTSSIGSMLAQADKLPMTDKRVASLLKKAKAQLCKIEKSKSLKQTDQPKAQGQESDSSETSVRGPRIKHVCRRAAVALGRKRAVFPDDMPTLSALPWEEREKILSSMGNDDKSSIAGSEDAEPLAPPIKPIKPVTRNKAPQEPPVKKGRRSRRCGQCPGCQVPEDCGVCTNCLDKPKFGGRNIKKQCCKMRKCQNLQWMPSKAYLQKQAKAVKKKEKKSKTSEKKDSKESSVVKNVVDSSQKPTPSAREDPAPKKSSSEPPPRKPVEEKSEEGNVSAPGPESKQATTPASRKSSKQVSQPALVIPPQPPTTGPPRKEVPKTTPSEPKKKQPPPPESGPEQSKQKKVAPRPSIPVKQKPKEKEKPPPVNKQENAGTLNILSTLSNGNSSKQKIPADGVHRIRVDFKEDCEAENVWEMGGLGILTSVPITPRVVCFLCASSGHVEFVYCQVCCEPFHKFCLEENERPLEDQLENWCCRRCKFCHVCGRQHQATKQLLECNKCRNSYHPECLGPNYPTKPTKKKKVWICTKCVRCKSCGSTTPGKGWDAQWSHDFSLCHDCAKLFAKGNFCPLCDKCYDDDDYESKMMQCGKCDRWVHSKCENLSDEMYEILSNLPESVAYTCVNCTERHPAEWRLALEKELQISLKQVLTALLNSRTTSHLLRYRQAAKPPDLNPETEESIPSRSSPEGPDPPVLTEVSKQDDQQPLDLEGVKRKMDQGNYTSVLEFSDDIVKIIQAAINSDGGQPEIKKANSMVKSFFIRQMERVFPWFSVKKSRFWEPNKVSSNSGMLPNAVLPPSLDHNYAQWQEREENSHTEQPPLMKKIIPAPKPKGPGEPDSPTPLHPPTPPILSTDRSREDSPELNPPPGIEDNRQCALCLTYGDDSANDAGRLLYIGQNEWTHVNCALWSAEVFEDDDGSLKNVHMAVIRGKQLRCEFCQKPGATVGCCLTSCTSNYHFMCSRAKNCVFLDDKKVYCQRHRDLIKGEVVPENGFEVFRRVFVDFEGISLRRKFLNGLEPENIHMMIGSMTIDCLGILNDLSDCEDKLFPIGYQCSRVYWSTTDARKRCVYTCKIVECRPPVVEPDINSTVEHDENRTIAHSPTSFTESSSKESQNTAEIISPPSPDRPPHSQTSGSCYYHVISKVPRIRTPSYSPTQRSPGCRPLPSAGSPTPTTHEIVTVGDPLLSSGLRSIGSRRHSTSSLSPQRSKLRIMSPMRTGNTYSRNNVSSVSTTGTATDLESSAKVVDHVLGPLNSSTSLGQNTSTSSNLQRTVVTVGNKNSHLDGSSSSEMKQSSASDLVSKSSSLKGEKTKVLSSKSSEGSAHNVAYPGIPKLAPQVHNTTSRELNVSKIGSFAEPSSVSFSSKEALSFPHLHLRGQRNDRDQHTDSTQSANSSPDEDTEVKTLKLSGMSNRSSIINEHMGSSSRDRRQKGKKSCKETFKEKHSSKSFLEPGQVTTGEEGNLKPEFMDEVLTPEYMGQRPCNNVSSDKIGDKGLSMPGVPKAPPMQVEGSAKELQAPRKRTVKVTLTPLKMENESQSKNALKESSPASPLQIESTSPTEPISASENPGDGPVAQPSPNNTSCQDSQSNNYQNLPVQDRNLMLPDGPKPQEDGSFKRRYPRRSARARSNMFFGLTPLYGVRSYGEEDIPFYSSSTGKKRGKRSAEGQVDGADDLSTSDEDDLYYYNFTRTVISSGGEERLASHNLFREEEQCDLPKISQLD
Sequence of Histone-lysine N-methyltransferase 2A (Q03164 2719-3969 limits assumed): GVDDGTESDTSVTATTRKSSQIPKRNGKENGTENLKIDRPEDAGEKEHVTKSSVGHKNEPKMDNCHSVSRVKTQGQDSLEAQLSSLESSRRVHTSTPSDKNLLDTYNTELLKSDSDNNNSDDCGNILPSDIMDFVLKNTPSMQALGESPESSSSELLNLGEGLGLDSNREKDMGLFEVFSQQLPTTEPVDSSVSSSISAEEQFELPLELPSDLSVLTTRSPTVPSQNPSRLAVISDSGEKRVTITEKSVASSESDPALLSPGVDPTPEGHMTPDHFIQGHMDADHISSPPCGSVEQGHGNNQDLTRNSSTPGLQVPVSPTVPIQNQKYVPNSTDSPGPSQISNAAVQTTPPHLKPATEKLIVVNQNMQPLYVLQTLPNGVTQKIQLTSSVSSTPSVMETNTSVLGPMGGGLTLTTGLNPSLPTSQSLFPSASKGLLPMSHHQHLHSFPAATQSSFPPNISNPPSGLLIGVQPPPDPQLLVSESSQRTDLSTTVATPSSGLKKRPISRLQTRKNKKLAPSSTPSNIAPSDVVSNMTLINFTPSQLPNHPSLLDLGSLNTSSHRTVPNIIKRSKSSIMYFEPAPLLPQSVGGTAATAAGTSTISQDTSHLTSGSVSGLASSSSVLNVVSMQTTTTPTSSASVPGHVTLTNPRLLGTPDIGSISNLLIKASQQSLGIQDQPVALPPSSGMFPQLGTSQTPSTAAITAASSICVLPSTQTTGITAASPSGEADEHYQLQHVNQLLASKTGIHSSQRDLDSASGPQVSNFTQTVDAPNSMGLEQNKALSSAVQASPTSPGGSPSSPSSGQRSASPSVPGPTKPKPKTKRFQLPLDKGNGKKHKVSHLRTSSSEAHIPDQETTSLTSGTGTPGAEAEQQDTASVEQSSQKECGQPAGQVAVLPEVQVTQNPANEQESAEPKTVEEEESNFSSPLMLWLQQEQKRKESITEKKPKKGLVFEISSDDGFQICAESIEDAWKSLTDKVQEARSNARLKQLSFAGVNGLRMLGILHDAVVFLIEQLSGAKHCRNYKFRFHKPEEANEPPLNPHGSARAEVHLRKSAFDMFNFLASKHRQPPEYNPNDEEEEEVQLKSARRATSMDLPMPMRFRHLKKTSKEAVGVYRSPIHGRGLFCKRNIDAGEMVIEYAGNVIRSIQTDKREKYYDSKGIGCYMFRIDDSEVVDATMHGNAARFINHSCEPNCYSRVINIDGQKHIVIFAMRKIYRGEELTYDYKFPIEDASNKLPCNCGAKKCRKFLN

[6] = molecular target: T3, Histone-lysine N-methyltransferase EZH1 (Homo sapiens, UniProt Q92800); experiment: Inhibition of Ezh1 (unknown origin) preincubated for 15 mins followed by addition of substrate measured after 1 hr by AlphaLISA assay
T3 sequence (Q92800 whole entry): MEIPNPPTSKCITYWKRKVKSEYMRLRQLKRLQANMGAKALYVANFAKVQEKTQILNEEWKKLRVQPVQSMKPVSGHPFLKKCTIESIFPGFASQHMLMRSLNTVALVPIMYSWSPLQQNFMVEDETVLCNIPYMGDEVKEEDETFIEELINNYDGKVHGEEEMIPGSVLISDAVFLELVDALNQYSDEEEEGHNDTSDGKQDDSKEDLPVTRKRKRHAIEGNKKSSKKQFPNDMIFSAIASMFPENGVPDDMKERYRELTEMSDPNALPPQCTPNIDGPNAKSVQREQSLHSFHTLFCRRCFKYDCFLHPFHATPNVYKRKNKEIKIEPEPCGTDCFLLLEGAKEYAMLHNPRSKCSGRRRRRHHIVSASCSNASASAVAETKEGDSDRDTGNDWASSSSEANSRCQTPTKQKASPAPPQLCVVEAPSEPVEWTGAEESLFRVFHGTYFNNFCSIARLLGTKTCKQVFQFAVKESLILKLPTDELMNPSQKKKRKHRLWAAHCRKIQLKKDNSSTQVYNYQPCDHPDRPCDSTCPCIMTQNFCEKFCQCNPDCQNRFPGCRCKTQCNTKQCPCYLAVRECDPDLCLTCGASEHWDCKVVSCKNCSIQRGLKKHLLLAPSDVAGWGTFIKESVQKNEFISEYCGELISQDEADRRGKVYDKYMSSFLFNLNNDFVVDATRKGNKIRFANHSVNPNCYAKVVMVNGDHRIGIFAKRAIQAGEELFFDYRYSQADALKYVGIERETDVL

[7] = molecular target: T4, Histone-lysine N-methyltransferase SMYD3 (Homo sapiens, UniProt Q9H7B4); experiment: Inhibition of SMYD3 (unknown origin) preincubated for 15 mins followed by addition of [3H]-SAM as substrate and peptide solution after 240 mins cold SAM was added measured after 1 hr by radioisotope assay
T4 sequence (Q9H7B4 whole entry): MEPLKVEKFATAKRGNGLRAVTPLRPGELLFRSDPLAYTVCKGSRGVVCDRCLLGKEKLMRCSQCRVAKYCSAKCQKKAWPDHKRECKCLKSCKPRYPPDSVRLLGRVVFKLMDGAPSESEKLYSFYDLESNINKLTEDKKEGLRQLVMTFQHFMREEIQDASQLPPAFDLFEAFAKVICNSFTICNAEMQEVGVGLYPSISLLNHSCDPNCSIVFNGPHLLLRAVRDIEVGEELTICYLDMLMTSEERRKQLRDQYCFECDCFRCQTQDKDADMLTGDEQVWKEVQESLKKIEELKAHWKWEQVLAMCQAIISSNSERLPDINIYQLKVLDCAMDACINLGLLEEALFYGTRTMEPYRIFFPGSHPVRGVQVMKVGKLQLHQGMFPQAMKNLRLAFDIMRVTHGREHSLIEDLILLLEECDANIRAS

[8] = molecular target: T5, Histone-lysine N-methyltransferase NSD2 (Homo sapiens, UniProt O96028); experiment: Inhibition of NSD2 (unknown origin) preincubated for 15 mins followed by addition of [3H]-SAM as substrate and peptide solution after 240 mins cold SAM was added measured by radioisotope assay
T5 sequence (O96028 whole entry): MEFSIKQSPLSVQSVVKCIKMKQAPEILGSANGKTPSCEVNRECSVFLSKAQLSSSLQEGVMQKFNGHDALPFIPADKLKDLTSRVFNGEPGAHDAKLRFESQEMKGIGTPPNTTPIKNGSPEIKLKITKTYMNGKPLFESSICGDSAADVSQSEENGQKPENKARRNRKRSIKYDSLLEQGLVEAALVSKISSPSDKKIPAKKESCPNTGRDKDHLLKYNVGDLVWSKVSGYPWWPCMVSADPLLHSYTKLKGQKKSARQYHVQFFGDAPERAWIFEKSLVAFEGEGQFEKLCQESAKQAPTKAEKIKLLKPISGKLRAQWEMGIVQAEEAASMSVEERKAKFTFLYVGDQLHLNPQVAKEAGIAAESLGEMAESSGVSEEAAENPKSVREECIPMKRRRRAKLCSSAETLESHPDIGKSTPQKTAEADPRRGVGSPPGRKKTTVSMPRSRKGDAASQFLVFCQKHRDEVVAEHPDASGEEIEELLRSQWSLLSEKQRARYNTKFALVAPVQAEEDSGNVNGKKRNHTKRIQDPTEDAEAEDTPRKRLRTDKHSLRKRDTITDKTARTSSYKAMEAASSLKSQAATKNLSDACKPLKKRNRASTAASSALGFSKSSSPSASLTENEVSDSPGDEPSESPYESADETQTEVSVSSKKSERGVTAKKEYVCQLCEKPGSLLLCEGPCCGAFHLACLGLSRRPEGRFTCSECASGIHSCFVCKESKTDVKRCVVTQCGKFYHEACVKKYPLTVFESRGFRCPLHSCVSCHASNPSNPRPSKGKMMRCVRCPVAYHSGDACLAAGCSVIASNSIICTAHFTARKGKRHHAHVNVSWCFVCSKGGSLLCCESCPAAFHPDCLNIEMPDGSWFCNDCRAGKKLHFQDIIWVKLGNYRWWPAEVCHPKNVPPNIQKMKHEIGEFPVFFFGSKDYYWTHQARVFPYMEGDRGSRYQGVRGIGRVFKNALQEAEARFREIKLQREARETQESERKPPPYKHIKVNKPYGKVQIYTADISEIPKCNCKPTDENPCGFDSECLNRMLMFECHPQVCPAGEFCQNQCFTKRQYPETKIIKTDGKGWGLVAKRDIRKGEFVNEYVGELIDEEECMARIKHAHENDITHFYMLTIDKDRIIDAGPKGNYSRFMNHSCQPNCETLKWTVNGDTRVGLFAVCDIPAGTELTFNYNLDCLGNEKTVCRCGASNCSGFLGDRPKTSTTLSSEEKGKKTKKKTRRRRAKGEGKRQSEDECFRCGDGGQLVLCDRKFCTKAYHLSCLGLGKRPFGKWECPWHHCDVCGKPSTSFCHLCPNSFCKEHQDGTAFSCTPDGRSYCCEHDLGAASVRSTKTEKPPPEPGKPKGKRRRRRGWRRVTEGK

MV4-11 = experiment: Antiproliferation activity against human MV4-11 cells assessed as reduction in cell viability measured by Cell-titer-Glo assay; format: functional, cell-based
Homo sapiens = organism: Homo sapiens; experiment: Antiproliferation activity against human UMCHOR1 cells assessed as reduction in cell viability measured by Cell-titer-Glo assay; format: functional, cell-based
MCF7 = experiment: Antiproliferation activity against human MCF7 cells assessed as reduction in cell viability measured by Cell-titer-Glo assay; format: functional, cell-based
HeLa = experiment: Antiproliferation activity against human HeLa cells assessed as reduction in cell viability measured by Cell-titer-Glo assay; format: functional, cell-based
A549 = experiment: Antiproliferation activity against human A549 cells assessed as reduction in cell viability measured by Cell-titer-Glo assay; format: functional, cell-based

SMILES | inhibition [1] | inhibition [2] | inhibition [3] | IC50 [4] | also measured
O=C(N/N=C/c1ccc([N+](=O)[O-])o1)c1ccc(O)cc1 | 18% | 7% | 8% |  | 
O=c1cc(-c2ccc(O)c(O)c2)oc2cc(O)cc(O)c12 [LUTEOLIN] |  |  |  | 6.08 µM | 
C=CC(C)(C)c1cc(/C=C/C(=O)c2ccc(O)cc2)c(OC)cc1O | 28% | 39% | 17% |  | 
O=c1c(O)c(-c2ccc(O)cc2O)oc2cc(O)cc(O)c12 [MORIN] | 62% | 87% | 40% | 6.02 µM | 
Cc1cc([N+](=O)[O-])ccc1NS(=O)(=O)c1cc(Cl)ccc1Cl | 26% | 26% | 17% |  | 
CC(C)C[C@H](NC(=O)[C@H](Cc1ccccc1)NC(=O)c1cnccn1)B(O)O | 19% | 24% | 18% |  | 
O=c1c(O)c(-c2ccccc2)oc2cc(O)cc(O)c12 [GALANGIN] |  |  |  | > 200 µM | 
O=c1cc(-c2ccc(O)cc2)oc2cc(O)c(O)c(O)c12 [SCUTELLAREIN] |  |  |  | 1.96 µM | Activity (MDA-MB-231): inactive; IC50 [5]: 2.92 µM; IC50 [6]: 8.77 µM; IC50 [7]: 18.2 µM; IC50 [8]: 2.65 µM; IC50 (MV4-11): 27.1 µM; Activity (Homo sapiens): inactive; Activity (MCF7): inactive; Activity (HeLa): inactive; Activity (A549): inactive
CC(C)=CCC1=C(O)C(=O)c2ccccc2C1=O | 4% |  | 3% |  | 
COc1ccc(-c2oc3cc(O)cc(O)c3c(=O)c2O)cc1 [KAEMPFERIDE] |  |  |  | > 200 µM | 
Cc1cnc(NC(=O)C2=C(O)c3ccccc3S(=O)(=O)N2C)s1 | 29% | 23% | 18% |  | 
CCN1CCCC1CNC(=O)c1cc(S(=O)(=O)CC)c(N)cc1OC (centres undefined) | 14% | 3% | 14% |  | 
COc1c(O)cc(O)c2c(=O)cc(-c3ccccc3)oc12 | 10% | 4% | 19% |  | 
N[C@@H](CC(=O)N1CCn2c(nnc2C(F)(F)F)C1)Cc1cc(F)c(F)cc1F | 6% |  |  |  | 
O=c1c(-c2ccc(O)cc2)coc2cc(O)ccc12 | 6% | 14% | 5% |  | 
COc1cc(O)c(CC=C(C)C)c(O)c1C(=O)/C=C/c1ccc(O)cc1 | 11% | 18% | 9% |  | 
COC(=O)[C@H](Cc1ccccc1)NC(=O)[C@@H](N)CC(=O)O | 32% | 10% | 17% |  | 
O=C(Nc1c(Cl)cncc1Cl)c1ccc(OC(F)F)c(OCC2CC2)c1 | 19% | 23% | 27% |  | 
CC(C)=CC[C@@H](O)C1=CC(=O)c2c(O)ccc(O)c2C1=O [SHIKONIN] | 72% | 90% | 50% | 21.6 µM | 
O=c1c(O)c(-c2ccc(O)cc2)oc2cc(O)cc(O)c12 [KAEMPFEROL] |  |  |  | > 200 µM | 
CCn1cc(C(=O)O)c(=O)c2cc(F)c(N3CCNC(C)C3)c(F)c21 (centres undefined) | 23% | 14% | 19% |  | 
Cc1oncc1C(=O)Nc1ccc(C(F)(F)F)cc1 | 4% |  |  |  | 
O=C1C[C@@H](c2ccc(O)c(O)c2)Oc2cc(O)cc(O)c21 [ERIODICTYOL] |  |  |  | > 200 µM | 
